# Measurements: patent US20110082157A1, “Piperidinylamino-Thieno [2,3-D] Pyrimidine Compounds” (priority 2004, published 2011)
# Structures can show the parent of a compound that is named as a salt.
# Assays:
# hERG = hERG (Homo sapiens, UniProt Q12809); test: hERG % inhibition at 1 uM
# 5HT2B = 5HT2B (Homo sapiens, UniProt P41595); test: 5HT2B binding (Ki of Biological Data Table)
# HLM T1/2 = conditions: human, liver microsomes
# Chain of 5HT2B (P41595 whole entry, species assumed): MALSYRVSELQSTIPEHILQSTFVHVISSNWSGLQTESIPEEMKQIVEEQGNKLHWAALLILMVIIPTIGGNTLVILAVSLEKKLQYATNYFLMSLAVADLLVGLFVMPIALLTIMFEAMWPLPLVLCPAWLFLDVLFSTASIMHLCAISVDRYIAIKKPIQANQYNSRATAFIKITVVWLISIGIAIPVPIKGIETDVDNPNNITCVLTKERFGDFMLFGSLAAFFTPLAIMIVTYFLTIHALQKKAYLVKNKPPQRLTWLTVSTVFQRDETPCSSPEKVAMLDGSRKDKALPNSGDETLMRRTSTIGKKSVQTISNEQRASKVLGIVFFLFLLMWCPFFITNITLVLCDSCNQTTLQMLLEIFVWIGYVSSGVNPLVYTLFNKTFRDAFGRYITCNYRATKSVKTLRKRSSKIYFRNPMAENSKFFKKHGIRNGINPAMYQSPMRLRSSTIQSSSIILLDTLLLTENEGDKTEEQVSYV
# Chain of hERG (Q12809 whole entry): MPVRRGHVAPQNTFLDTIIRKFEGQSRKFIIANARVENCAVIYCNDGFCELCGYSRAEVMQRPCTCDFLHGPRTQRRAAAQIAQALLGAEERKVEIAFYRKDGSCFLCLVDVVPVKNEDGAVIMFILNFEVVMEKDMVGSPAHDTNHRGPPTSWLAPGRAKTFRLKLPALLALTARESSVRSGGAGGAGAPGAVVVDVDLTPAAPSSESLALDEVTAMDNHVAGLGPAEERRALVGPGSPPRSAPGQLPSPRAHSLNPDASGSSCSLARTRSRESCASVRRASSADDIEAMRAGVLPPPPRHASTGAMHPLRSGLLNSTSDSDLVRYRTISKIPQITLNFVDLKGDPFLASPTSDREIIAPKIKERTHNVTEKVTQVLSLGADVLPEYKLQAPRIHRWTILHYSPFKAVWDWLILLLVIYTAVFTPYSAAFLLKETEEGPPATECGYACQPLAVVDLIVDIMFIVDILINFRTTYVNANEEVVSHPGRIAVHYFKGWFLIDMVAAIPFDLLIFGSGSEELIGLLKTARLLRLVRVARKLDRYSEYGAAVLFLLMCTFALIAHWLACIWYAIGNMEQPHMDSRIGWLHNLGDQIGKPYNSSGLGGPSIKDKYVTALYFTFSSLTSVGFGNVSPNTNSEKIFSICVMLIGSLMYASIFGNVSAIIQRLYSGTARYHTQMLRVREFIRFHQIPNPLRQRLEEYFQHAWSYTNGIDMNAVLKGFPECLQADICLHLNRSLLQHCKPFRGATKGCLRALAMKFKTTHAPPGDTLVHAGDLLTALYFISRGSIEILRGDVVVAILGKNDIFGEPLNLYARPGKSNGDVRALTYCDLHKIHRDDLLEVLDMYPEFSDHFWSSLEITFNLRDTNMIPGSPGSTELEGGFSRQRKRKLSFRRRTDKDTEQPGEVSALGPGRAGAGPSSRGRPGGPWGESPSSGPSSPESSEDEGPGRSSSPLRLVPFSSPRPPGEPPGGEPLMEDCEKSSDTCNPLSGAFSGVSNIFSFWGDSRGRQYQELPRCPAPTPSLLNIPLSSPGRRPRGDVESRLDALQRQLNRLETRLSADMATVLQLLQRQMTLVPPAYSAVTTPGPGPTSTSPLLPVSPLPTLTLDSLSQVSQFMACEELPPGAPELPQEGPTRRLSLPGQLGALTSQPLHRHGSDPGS
half-life (HLM T1/2),Structure (SMILES),also measured
< 15 min,"CC(c1cccc(F)c1)N1CCC(Nc2ncnc3sc4c(c23)CCCC4)CC1 (centres unmarked) [Example B10, N-(1-(1-(3-fluorophenyl)ethyl)piperidin-4-yl)-(5,6,7,8-tetrahydro-benzo[4,5]thieno[2,3-d]pyrimidin-4-amine, dihydrochloride]",
< 15 min,"Cc1sc2ncnc(NC3CCN(C(C)c4cccc(F)c4)CC3)c2c1C (centres unmarked) [Example B13, N-(1-(1-(3-fluorophenyl)ethyl)piperidin-4-yl)-5,6-dimethylthieno[2,3-d] pyrimidin-4-amine, dihydrochloride]",
< 15 min,"CC(C)CC(c1cccc(F)c1)N1CCC(Nc2ncnc3sc4c(c23)CCCC4)CC1 (centres unmarked) [Example B16, N-(1-(1-(3-fluorophenyl)-3-methylbutyl)piperidin-4-yl)5,6,7,8-tetrahydro-benzo[4,5]thieno[2,3-d] pyrimidin-4-amine, dihydrochloride]",
11 min,"Cc1c(Cl)sc2ncnc(NC3CCN(Cc4cccc(F)c4)CC3)c12 [Example B37, N-(1-(3-fluorobenzyl)piperidin-4-yl)-6-chloro-5-methylthieno[2,3-d]pyrimidin-4-amine, dihydrochloride]",
< 15 min,"Cc1c(Cl)sc2ncnc(NC3CCN(Cc4ccccc4C#N)CC3)c12 [Example B39, 2-((4-(6-chloro-5-methylthieno[2,3-d]pyrimidin-4-ylamino)piperidin-1-yl)methyl) benzonitrile, dihydrochloride]",
< 15 min,"COc1ccccc1CN1CCC(Nc2ncnc3sc(Cl)c(C)c23)CC1 [Example B40, N-(1-(2-methoxybenzyl)piperidin-4-yl)-6-chloro-5-methylthieno[2,3-d] pyrimidin-4-amine, dihydrochloride]",
86 min,"NC(=O)c1cccc(CN2CCC(Nc3ncnc4sc(Cl)cc34)CC2)c1 [Example B45, 3-((4-(6-chlorothieno [2,3-d]pyrimidin-4-ylamino)piperidin-1-yl)methyl) benzamide, monomaleate]",
< 15 min,"Fc1ccccc1CN1CCC(Nc2ncnc3sc(Cl)cc23)CC1 [Example B46, N-(1-(2-fluorobenzyl)piperidin-4-yl)-6-chlorothieno[2,3-d]pyrimidin-4-amine, monomaleate]",hERG (% Inhibition at 1 uM) (hERG): hERG (% Inhibition at 1 uM): 39.5
11 min,"Clc1cccc(CN2CCC(Nc3ncnc4sc(Cl)cc34)CC2)c1 [Example B52, N-(1-(3-chlorobenzyl)piperidin-4-yl)-6-chlorothieno[2,3-d]pyrimidin-4-amine, monomaleate]",
8 min,"CC(C)c1c(Cl)sc2ncnc(NC3CCN(Cc4cccc(F)c4)CC3)c12 [Example B53, N-(1-(3-fluorobenzyl)piperidin-4-yl)-6-chloro-5-isopropylthieno[2,3-d]pyrimidin-4-amine, monomaleate]",
16 min,"FC(F)(F)c1cccc(CN2CCC(Nc3ncnc4sc(Cl)cc34)CC2)c1 [Example B54, N-(1-(3-(trifluoromethyl)benzyl)piperidin-4-yl)-6-chlorothieno[2,3-d]pyrimidin-4-amine, monomaleate]",

# Second part, the compound before the results:
Structure (SMILES),half-life (HLM T1/2),also measured
"Fc1ccccc1CN1CCC(Nc2ncnc3sc4c(c23)CCCC4)CC1 [Example B4, N-(1-(2-fluorobenzyl)piperidin-4-yl)5,6,7,8-tetrahydro-benzo[4,5]thieno[2,3-d]pyrimidin-4-amine]",,hERG (% Inhibition at 1 uM) (hERG): hERG (% Inhibition at 1 uM): 58.5
"CN1CCC(N(C)c2ncnc3sc4c(c23)CCCC4)CC1 [Example B5, N-methyl-N-(1-methylpiperidin-4-yl)5,6,7,8-tetrahydro-benzo[4,5] thieno[2,3-d]pyrimidin-4-amine]",,% at 10 nM (5HT2B): -2%; % at 100 nM (5HT2B): 11%; % at 1000 nM (5HT2B): 67%
"c1ccc(CN2CCC(Nc3ncnc4scc(-c5ccccc5)c34)CC2)cc1 [Example B6, N-(1-benzylpiperidin-4-yl)-5-phenylthieno [2,3-d]pyrimidin-4-amine]",< 15 min,% at 10 nM (5HT2B): 38%; % at 100 nM (5HT2B): 91%; % at 1000 nM (5HT2B): 101%
"Oc1cc(C(F)(F)F)cnc1N1CCC(Nc2ncnc3scc(-c4ccccc4)c23)CC1 [Example B7, 2-(4-(5-phenylthieno [2,3-d]pyrimidin-4-ylamino)piperidin-1-yl)-5-(trifluoromethyl) pyridin-3-ol]",,% at 10 nM (5HT2B): 3%; % at 100 nM (5HT2B): 4%; % at 1000 nM (5HT2B): 30%
"c1ccc(CN2CCC(Nc3ncnc4sccc34)CC2)cc1 [Example B8, N-(1-benzylpiperidin-4-yl)thieno [2,3-d]pyrimidin-4-amine]",,% at 10 nM (5HT2B): 13%; % at 100 nM (5HT2B): 62%; % at 1000 nM (5HT2B): 96%
"Cc1csc2ncnc(NC3CCN(Cc4ccccc4)CC3)c12 [Example B9, N-(1-benzylpiperidin-4-yl)-5-methylthieno [2,3-d]pyrimidin-4-amine]",,% at 10 nM (5HT2B): 15%; % at 100 nM (5HT2B): 62%; % at 1000 nM (5HT2B): 97%
"CC(c1cccc(F)c1)N1CCC(C)(Nc2ncnc3sc4c(c23)CCCC4)CC1 (centres unmarked) [Example B15, N-(1-(1-(3-fluorophenyl)ethyl)-4-methylpiperidin-4-yl) 5,6,7,8-tetrahydro-benzo[4,5]thieno[2,3-d]pyrimidin-4-amine, dihydrochloride]",< 15 min,
"CC(C)Cc1cc2c(NC3CCN(C(C)c4c(F)cc(F)cc4F)CC3)ncnc2s1 (centres unmarked) [Example B19, N-(1-(1-(2,4,6-trifluorophenyl)ethyl)piperidin-4-yl)-6-isobutylthieno[2,3-d]pyrimidin-4-amine, dihydrochloride]",< 15 min,hERG (% Inhibition at 1 uM) (hERG): hERG (% Inhibition at 1 uM): 50.2
"CC(C)Cc1cc2c(NC3CCN(C(C)c4c(F)cccc4F)CC3)ncnc2s1 (centres unmarked) [Example B20, N-(1-(1-(2,6-difluorophenyl)ethyl)piperidin-4-yl)-6-isobutylthieno[2,3-d] pyrimidin-4-amine, dihydrochloride]",< 15 min,hERG (% Inhibition at 1 uM) (hERG): hERG (% Inhibition at 1 uM): 73.4
"CC(c1c(F)cccc1F)N1CCC(Nc2ncnc3sc4c(c23)CCCC4)CC1 (centres unmarked) [Example B21, N-(1-(1-(2,6-difluorophenyl)ethyl)piperidin-4-yl)5,6,7,8-tetrahydro-benzo[4,5]thieno[2,3-d]pyrimidin-4-amine, dihydrochloride]",< 15 min,
"CC(C#N)(c1cccc(F)c1)N1CCC(Nc2ncnc3sc4c(c23)CCCC4)CC1 (centres unmarked) [Example B23, 2-(3-fluorophenyl)-2-(4-(5,6,7,8-tetrahydro-benzo[4,5]thieno[2,3-d]pyrimidin-4-ylamino)piperidin-1-yl) propanenitrile, dihydrochloride]",< 15 min,
"CC(C)(c1cccc(F)c1)N1CCC(Nc2ncnc3sc4c(c23)CCCC4)CC1 [Example B24, N-(1-(2-(3-fluorophenyl)propan-2-yl)piperidin-4-yl)5,6,7,8-tetrahydro-benzo[4,5]thieno[2,3-d]pyrimidin-4-amine, dihydrochloride]",< 15 min,
"Fc1cccc(CNCCCNc2ncnc3sc4c(c23)CCCC4)c1 [Example B25, N-(3-(3-fluorobenzylamino)propyl)5,6,7,8-tetrahydro-benzo[4,5]thieno[2,3-d]pyrimidin-4-amine, dihydrochloride]",< 15 min,
"CC(NCCCNc1ncnc2sc3c(c12)CCCC3)c1cccc(F)c1 (centres unmarked) [Example B26, N-(3-(1-(3-fluorophenyl)ethylamino)propyl) 5,6,7,8-tetrahydro-benzo[4,5]thieno[2,3-d] pyrimidin-4-amine, dihydrochloride]",< 15 min,
"CC(C)Cc1cc2c(NCCCNC(C)c3cccc(F)c3)ncnc2s1 (centres unmarked) [Example B27, N-(3-(1-(3-fluorophenyl)ethylamino)propyl)-6-isobutylthieno[2,3-d]pyrimidin-4-amine, dihydrochloride]",< 15 min,
"Fc1cccc(C(N2CCC(Nc3ncnc4sc5c(c34)CCCC5)CC2)C(F)(F)F)c1 (centres unmarked) [Example B28, N-(1-(2,2,2-trifluoro-1-(3-fluorophenyl)ethyl)piperidin-4-yl)5,6,7,8-tetrahydro-benzo[4,5]thieno[2,3-d]pyrimidin-4-amine, dihydrochloride]",11 min,
"CC(C)Cc1cc2c(N3CCC(NCc4cc(F)cc(F)c4)CC3)ncnc2s1 [Example B29, N-(3,5-difluorobenzyl)-1-(6-isobutylthieno[2,3-d]pyrimidin-4-yl) piperidin-4-amine, dihydrochloride]",18 min,
"Fc1cc(F)cc(CN2CCC(Nc3ncnc4sc(Cl)cc34)CC2)c1 [Example B33, N-(1-(3,5-difluorobenzyl)piperidin-4-yl)-6-chlorothieno[2,3-d]pyrimidin-4-amine, dihydrochloride]",13 min,hERG (% Inhibition at 1 uM) (hERG): hERG (% Inhibition at 1 uM): 22.8
"Cc1sc2ncnc(NC3CCN(CC4CCCCC4)CC3)c2c1C [Example B35, N-(1-(cyclohexylmethyl)piperidin-4-yl)-5,6-dimethylthieno[2,3-d]pyrimidin-4-amine, dihydrochloride]",< 15 min,hERG (% Inhibition at 1 uM) (hERG): hERG (% Inhibition at 1 uM): 91.7
"Cc1sc2ncnc(NC3CCN(Cc4ccccc4C#N)CC3)c2c1C [Example B36, 2-((4-(5,6-dimethylthieno[2,3-d]pyrimidin-4-ylamino)piperidin-1-yl)methyl)benzonitrile, dihydrochloride]",,hERG (% Inhibition at 1 uM) (hERG): hERG (% Inhibition at 1 uM): 21.7
"Fc1cccc(CN2CCC(Nc3ncnc4sc(Cl)cc34)CC2)c1 [Example B41, N-(1-(3-fluorobenzyl)piperidin-4-yl)-6-chlorothieno[2,3-d]pyrimidin-4-amine, dihydrochloride]",10 min,
"Clc1cc2c(NC3CCN(Cc4cncnc4)CC3)ncnc2s1 [Example B49, 6-chloro-N-(1-((pyrimidin-5-yl)methyl)piperidin-4-yl)thieno[2,3-d] pyrimidin-4-amine, monomaleate]",60 min,
"N#Cc1ccc(F)c(CN2CCC(Nc3ncnc4sc(Cl)cc34)CC2)c1 [Example B51, 3-((4-(6-chlorothieno [2,3-d]pyrimidin-4-ylamino)piperidin-1-yl)methyl)-4-fluorobenzonitrile, monomaleate]",10 min,
